Results published in ChEMBL document CHEMBL3593212, “Synthesis and evaluation of novel 1H-pyrrolo[2,3-b]pyridine-5-carboxamide derivatives as potent and orally efficacious immunomodulators targeting JAK3” (Bioorg Med Chem, 2015).

What was measured:
[1] = molecular target: Epidermal growth factor receptor (Homo sapiens, UniProt P00533); test: Inhibition of EGFR (unknown origin)
[2] = Total clearance in Sprague-Dawley rat at 1 mg/kg, iv by LC/MS/MS method; type: ADME, organism-based; conditions: in vivo
[3] = molecular target: Mitogen-activated protein kinase 10 (Homo sapiens, UniProt P53779); test: Inhibition of JNK3 (unknown origin)
Aurora kinase C = Aurora kinase C (Homo sapiens, UniProt Q9UQB9); test: Inhibition of AurC (unknown origin)
Focal adhesion kinase 1 = Focal adhesion kinase 1 (Homo sapiens, UniProt Q05397); test: Inhibition of FAK (unknown origin)
[4] = molecular target: Protein kinase C theta type (Homo sapiens, UniProt Q04759); test: Inhibition of PKCtheta (unknown origin)
[5] = molecular target: Protein kinase C alpha type (Homo sapiens, UniProt P17252); test: Inhibition of PKCalpha (unknown origin)
[6] = Cmax in Sprague-Dawley rat at 3 mg/kg, po by LC/MS/MS method; type: ADME, organism-based; set-up: dose 3 mg/kg, route oral; conditions: in vivo
[7] = molecular target: Tyrosine-protein kinase JAK1 (Homo sapiens, UniProt P23458); test: Inhibition of human JAK1 kinase domain using biotin-Lyn-substrate-2 as substrate incubated for 1 hr by ELISA method
[8] = molecular target: Dual specificity mitogen-activated protein kinase kinase 1 (Homo sapiens, UniProt Q02750); test: Inhibition of MEK1 (unknown origin)
[9] = molecular target: Serine/threonine-protein kinase Chk1 (Homo sapiens, UniProt O14757); test: Inhibition of CHK1 (unknown origin)
[10] = molecular target: Tyrosine-protein kinase CSK (Homo sapiens, UniProt P41240); test: Inhibition of CSK (unknown origin)
[11] = molecular target: Voltage-gated inwardly rectifying potassium channel KCNH2 (Homo sapiens, UniProt Q12809)
Description: Inhibition of human ERG expressed in CHOK1 cells incubated for 10 mins by Rb efflux assay

[12] = molecular target: RAF proto-oncogene serine/threonine-protein kinase (Homo sapiens, UniProt P04049); test: Inhibition of RAF1 (unknown origin)
[13] = molecular target: Tyrosine-protein kinase Tec (Homo sapiens, UniProt P42680); test: Inhibition of TEC (unknown origin)
[14] = molecular target: Casein kinase I isoform delta (Homo sapiens, UniProt P48730); test: Inhibition of CK1delta (unknown origin)
[15] = Inhibition of JAK1/JAK3 in Lewis rat splenocytes assessed as reduction in IL2-stimulated T-cell proliferation incubated for 3 days by alamar blue dye based fluorescence assay; conditions: 72 h
[16] = Intrinsic clearance in human liver microsomes at 0.2 uM in presence of NADPH generating system by LC/MS/MS method; type: ADME; conditions: read-out: CLH

Sequence of Aurora kinase C (Q9UQB9 whole entry): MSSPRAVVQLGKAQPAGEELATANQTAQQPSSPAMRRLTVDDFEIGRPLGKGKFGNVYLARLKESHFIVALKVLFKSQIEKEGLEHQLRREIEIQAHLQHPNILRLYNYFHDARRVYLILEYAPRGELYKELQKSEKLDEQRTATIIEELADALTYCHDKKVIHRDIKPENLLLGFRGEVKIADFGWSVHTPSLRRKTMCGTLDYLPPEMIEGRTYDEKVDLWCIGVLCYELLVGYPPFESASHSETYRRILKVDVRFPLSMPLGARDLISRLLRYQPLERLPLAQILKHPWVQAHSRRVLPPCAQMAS
Sequence of Epidermal growth factor receptor (P00533 whole entry): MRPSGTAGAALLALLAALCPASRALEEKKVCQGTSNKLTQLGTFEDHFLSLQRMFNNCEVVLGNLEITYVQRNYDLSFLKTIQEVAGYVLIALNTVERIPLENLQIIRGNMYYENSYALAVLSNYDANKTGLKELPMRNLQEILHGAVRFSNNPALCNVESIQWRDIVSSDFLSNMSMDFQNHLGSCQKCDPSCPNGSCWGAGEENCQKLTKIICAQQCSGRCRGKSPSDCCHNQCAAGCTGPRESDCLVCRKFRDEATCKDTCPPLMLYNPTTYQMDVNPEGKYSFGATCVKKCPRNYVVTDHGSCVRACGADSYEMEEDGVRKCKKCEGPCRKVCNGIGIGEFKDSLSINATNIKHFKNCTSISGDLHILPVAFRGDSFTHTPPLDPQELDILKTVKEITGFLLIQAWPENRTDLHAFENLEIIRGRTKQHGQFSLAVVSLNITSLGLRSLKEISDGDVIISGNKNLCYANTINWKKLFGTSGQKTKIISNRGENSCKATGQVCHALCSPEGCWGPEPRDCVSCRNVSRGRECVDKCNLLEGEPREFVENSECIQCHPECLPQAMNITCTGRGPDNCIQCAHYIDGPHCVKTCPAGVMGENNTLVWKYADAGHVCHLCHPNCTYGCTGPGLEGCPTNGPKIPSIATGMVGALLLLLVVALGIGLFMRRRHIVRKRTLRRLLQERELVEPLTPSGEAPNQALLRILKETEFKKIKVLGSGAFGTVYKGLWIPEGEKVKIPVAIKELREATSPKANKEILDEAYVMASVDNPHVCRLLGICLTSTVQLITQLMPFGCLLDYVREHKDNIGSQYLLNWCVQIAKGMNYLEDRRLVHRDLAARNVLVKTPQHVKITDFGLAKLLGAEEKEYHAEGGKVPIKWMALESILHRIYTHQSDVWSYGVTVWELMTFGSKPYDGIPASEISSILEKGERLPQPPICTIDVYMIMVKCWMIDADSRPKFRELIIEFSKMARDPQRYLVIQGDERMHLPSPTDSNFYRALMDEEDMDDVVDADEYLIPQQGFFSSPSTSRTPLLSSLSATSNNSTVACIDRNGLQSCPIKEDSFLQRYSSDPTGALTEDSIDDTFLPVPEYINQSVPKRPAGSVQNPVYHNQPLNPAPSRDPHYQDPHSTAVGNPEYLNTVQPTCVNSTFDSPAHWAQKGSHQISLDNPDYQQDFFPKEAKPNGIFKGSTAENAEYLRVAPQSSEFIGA
Sequence of Dual specificity mitogen-activated protein kinase kinase 1 (Q02750 whole entry): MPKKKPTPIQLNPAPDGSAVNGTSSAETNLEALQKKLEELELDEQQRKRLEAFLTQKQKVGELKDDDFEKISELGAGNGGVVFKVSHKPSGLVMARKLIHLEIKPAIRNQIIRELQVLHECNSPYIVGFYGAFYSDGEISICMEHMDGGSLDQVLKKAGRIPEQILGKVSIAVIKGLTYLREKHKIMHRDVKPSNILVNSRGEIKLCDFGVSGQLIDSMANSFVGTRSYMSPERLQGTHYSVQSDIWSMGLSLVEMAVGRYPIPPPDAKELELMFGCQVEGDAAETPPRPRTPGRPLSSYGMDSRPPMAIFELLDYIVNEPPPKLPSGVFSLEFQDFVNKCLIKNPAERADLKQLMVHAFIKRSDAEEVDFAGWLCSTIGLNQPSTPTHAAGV
Sequence of Protein kinase C theta type (Q04759 whole entry): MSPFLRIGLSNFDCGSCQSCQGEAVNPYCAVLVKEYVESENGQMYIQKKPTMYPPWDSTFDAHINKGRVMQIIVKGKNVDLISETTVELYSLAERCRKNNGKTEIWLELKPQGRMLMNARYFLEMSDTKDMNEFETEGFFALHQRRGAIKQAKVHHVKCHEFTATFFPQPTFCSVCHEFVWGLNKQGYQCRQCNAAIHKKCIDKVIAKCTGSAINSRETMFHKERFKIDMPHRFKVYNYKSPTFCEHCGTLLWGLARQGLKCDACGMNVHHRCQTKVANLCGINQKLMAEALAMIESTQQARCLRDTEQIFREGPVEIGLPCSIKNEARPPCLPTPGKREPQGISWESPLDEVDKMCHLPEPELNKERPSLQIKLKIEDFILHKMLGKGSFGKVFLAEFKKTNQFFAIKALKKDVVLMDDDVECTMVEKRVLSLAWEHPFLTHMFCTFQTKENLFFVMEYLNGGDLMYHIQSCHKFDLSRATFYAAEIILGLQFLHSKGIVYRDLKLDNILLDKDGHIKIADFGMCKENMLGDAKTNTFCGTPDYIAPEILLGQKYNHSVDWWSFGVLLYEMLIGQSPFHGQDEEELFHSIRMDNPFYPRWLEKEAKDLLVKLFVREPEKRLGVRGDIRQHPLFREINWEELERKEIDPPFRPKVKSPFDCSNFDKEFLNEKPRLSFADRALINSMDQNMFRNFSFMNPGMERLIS
Sequence of Mitogen-activated protein kinase 10 (P53779 whole entry): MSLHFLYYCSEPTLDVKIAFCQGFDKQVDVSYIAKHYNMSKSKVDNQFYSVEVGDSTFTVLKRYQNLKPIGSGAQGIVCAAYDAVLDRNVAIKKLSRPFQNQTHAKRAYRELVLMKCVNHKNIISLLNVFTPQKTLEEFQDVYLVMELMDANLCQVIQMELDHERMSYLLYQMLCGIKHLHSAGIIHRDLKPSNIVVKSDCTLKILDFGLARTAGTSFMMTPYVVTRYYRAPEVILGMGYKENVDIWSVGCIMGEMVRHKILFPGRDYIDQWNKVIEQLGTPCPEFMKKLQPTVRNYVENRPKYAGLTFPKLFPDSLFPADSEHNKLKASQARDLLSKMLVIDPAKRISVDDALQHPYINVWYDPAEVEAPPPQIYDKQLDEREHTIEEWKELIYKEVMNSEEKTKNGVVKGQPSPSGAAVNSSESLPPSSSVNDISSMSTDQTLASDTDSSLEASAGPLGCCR
Sequence of RAF proto-oncogene serine/threonine-protein kinase (P04049 whole entry): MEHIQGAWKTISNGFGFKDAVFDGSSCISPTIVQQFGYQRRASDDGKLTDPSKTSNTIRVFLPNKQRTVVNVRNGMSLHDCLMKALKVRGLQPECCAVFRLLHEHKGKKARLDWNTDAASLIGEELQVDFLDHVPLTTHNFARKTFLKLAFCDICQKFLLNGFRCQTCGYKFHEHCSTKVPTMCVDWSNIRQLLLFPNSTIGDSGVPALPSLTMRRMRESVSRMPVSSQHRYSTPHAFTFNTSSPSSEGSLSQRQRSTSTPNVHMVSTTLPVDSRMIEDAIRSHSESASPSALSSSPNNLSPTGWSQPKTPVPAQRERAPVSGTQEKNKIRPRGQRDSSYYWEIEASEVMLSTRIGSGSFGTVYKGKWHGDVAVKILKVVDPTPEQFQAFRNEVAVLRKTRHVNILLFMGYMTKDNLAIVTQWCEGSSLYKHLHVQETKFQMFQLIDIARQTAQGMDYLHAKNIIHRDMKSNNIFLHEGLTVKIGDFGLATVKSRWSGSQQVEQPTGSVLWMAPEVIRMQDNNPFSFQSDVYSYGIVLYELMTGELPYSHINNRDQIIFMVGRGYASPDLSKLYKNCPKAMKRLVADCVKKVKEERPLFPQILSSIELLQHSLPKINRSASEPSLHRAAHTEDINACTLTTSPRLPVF
Sequence of Casein kinase I isoform delta (P48730 whole entry, canonical isoform): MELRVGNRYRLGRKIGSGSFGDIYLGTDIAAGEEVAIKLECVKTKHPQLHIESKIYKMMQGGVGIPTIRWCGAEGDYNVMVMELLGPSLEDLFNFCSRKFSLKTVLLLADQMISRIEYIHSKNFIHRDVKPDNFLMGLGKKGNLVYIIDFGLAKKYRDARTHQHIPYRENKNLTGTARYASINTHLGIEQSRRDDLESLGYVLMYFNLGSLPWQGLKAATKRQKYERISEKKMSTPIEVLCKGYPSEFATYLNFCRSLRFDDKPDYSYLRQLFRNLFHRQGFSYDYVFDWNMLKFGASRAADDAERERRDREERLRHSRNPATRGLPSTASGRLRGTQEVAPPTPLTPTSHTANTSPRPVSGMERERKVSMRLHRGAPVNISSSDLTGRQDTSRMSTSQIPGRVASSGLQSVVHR

For `N#Cc1ccc(N2CC[C@@H](Nc3c(C(N)=O)cnc4[nH]ccc34)[C@@H](F)C2)nc1`, which IC50 [1] is on record?
Its IC50 is > 1 µM.

What about the clearance [2] of the same molecule?
Its clearance is 5.3 mL/min/kg.

What about the IC50 [3] of the same molecule?
Its IC50 is 0.56 µM.

And the IC50 (Aurora kinase C)?
The IC50 was > 1 µM.

And the IC50 (Focal adhesion kinase 1)?
Its IC50 is > 1 µM.

And the IC50 [4]?
Its IC50 is 0.32 µM.

What about the IC50 [5] of the same molecule?
Its IC50 is 0.13 µM.

And the Cmax [6]?
The Cmax was 633 ng/mL.

What about the IC50 [7] of the same molecule?
The IC50 was 0.0041 µM.

What about the IC50 [8] of the same molecule?
The IC50 was > 1 µM.

And the IC50 [9]?
Its IC50 is 0.95 µM.

And the IC50 [10]?
The IC50 was > 1 µM.

What about the IC50 [11] of the same molecule?
Its IC50 is > 100 µM.

And the IC50 [12]?
Its IC50 is > 1 µM.

And the IC50 [13]?
The IC50 was > 1 µM.

And the IC50 [14]?
The IC50 was > 1 µM.

And the IC50 [15]?
The IC50 was 0.011 µM.

What about the CLint scaled at 0.2 µM [16] of the same molecule?
Its CLint scaled at 0.2 µM is 4.8 mL/min/kg.
